Data: PubChem BioAssay (NCI)
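Cells were grown in 96-well plates and exposed to each compound for 48 hours at five concentrations; endpoints were interpolated linearly between bracketing concentrations, or set to the highest concentration if not reached. Definition used: TGI = concentration required for complete inhibition of growth.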 Where a SMILES comes first, the peptide text is derived from it. The star is where a group is joined. Boc = CC(C)(C)OC(=O)*; OBn = c1ccc(CO*)cc1

Tests used:
Assay in all cases: growth of human tumour cells (NCI), 48 h
COLO 205 colon = tested on: COLO 205 colon
SNB-75 CNS = tested on: SNB-75 CNS
SF-295 CNS = tested on: SF-295 CNS
SK-MEL-2 melanoma = tested on: SK-MEL-2 melanoma
RXF 393 renal = tested on: RXF 393 renal
PC-3 prostate = tested on: PC-3 prostate
MDA-MB-231 breast = tested on: MDA-MB-231 breast
IGROV1 ovarian = tested on: IGROV1 ovarian
UO-31 renal = tested on: UO-31 renal
UACC-257 melanoma = tested on: UACC-257 melanoma
OVCAR-3 ovarian = tested on: OVCAR-3 ovarian
MCF7 breast = tested on: MCF7 breast
786-0 renal = tested on: 786-0 renal
HT29 colon = tested on: HT29 colon
HS 578T breast = tested on: HS 578T breast
CCRF-CEM leukemia = tested on: CCRF-CEM leukemia
HCT-116 colon = tested on: HCT-116 colon
HOP-62 NSCLC = tested on: HOP-62 NSCLC
HOP-92 NSCLC = tested on: HOP-92 NSCLC
EKVX NSCLC = tested on: EKVX NSCLC
MDA-N = tested on: MDA-N
K-562 leukemia = tested on: K-562 leukemia
OVCAR-8 ovarian = tested on: OVCAR-8 ovarian
SW-620 colon = tested on: SW-620 colon
A498 renal = tested on: A498 renal
NCI-H522 lung = tested on: NCI-H522 lung
DU-145 prostate = tested on: DU-145 prostate
MOLT-4 leukemia = tested on: MOLT-4 leukemia
MDA-MB-435 = tested on: MDA-MB-435
SN12C renal = tested on: SN12C renal
SNB-19 CNS = tested on: SNB-19 CNS
NCI-H226 lung = tested on: NCI-H226 lung
SK-MEL-5 melanoma = tested on: SK-MEL-5 melanoma
CAKI-1 renal = tested on: CAKI-1 renal
U251 CNS = tested on: U251 CNS
TK-10 renal = tested on: TK-10 renal
A549 NSCLC = tested on: A549 NSCLC
M14 melanoma = tested on: M14 melanoma
RPMI-8226 leukemia = tested on: RPMI-8226 leukemia
NCI-H23 lung = tested on: NCI-H23 lung
KM12 colon = tested on: KM12 colon
SR leukemia = tested on: SR leukemia
HCT-15 colon = tested on: HCT-15 colon
SF-268 CNS = tested on: SF-268 CNS
MALME-3M melanoma = tested on: MALME-3M melanoma
T-47D breast = tested on: T-47D breast
HL-60(TB) leukemia = tested on: HL-60(TB) leukemia
SK-OV-3 ovarian = tested on: SK-OV-3 ovarian
OVCAR-5 ovarian = tested on: OVCAR-5 ovarian
SF-539 CNS = tested on: SF-539 CNS
BT-549 breast = tested on: BT-549 breast
NCI/ADR-RES ovarian = tested on: NCI/ADR-RES ovarian
UACC-62 melanoma = tested on: UACC-62 melanoma
SK-MEL-28 melanoma = tested on: SK-MEL-28 melanoma
LOX IMVI melanoma = tested on: LOX IMVI melanoma
OVCAR-4 ovarian = tested on: OVCAR-4 ovarian
NCI-H460 lung = tested on: NCI-H460 lung
HCC-2998 colon = tested on: HCC-2998 colon
ACHN renal = tested on: ACHN renal

Measured: TGI

CC(C)CC(NC(=O)C(Cc1ccccc1)NC(=O)C(Cc1ccccc1)NC(=O)OC(C)(C)C)C(=O)OCc1ccccc1 (stereo not drawn) (Boc-Phe-Phe-Leu-OBn; configuration not given here)
not listed: OVCAR-4 ovarian | NCI-H460 lung | HCC-2998 colon | ACHN renal
> 100 µM: all other assays above

O=C(CCc1ccc(O)cc1)NCCCNC(=O)CCc1ccc(O)cc1
not listed: HOP-92 NSCLC | EKVX NSCLC | TK-10 renal | HL-60(TB) leukemia
> 100 µM: all other assays above
